Laboratory results reported in patent publication US20020137929A1, “1 - (3-heterocyclylphenyl) isothiourea, -isourea, -guanidine and -amidine herbicidal agents” (Intellectual Property Department, BASF Aktiengesellschaft, priority 1998, published 2002).

Columns and labels:
[1] = system: MOOVA (Monochoria); assay: Preemergence weed control under flooded paddy conditions; assay type: in vivo, Monochoria vaginalis; conditions: rated 3-4 weeks after treatment
In short: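 Flooded-pot preemergence screen with silt loam and seeds in the upper 0.5 cm. Dose about 0.0313 to 0.500 kg/ha, delivered into flood water; visual 0-9 score after 3 to 4 weeks.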

[2] = system: ECHCG (Barnyardgrass); assay: Postemergence herbicidal evaluation; assay type: in vivo, Echinochloa crus-galli; conditions: for herbicidal rating ECHCG / ECHCG herbicidal rating: postemergence
In short: (§1)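 Two-week seedlings sprayed postemergence at 40 psi; formulation: 1:1 acetone/water, 0.5% TWEEN 20; application ≈0.0156–0.500 kg/ha. Greenhouse grow-out, then 0–9 visual scoring at 4–5 weeks.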

[3] = system: TRZAWR (Wheat, Winter, cv Riband); assay: Preemergence herbicidal evaluation; assay type: in vivo, Triticum aestivum; conditions: rated 4-5 weeks after treatment; for TRZAWR rating: preemergence, 0-9 scale
In short: (§2)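 Greenhouse preemergence test: seed-soil mix sown on ~1 inch soil; aqueous acetone spray at equivalent of ~0.0156–0.500 kg/ha; greenhouse-held and watered; scored 0–9 visually at 4–5 weeks.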

[4] = system: ZEAMX (Corn, Field); assay: Preemergence herbicidal evaluation; assay type: in vivo, Zea mays; conditions: rated 4-5 weeks after treatment; for ZEAMX rating: preemergence, 0-9 scale
In short: as §2

[5] = system: GALAP (Galium); assay: Postemergence herbicidal evaluation; assay type: in vivo, Galium aparine; conditions: for herbicidal rating GALAP / GALAP herbicidal rating: postemergence
In short: as §1

[6] = system: ORYSAT (Rice, Tebonnet); assay: Postemergence herbicidal evaluation; assay type: in vivo, Oryza sativa, (L.) Tebonnet; conditions: for herbicidal rating ORYSAT / ORYSAT herbicidal rating: postemergence
In short: as §1

[7] = system: CYPSE (Flatsedge); assay: Postemergence weed control under flooded paddy conditions; assay type: in vivo, Cyperus serotinus; conditions: postemergence weeds
In short: (§3)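 Containers holding 3–5 cm weeds and rice at 1.5–2.5 leaves are flooded to 1.5–3 cm above soil. Compound in 50/50 v/v aqueous/acetone is then added directly to the water, about 0.0313–0.500 kg/ha. Plants are kept in the greenhouse and rated 0–9 visually at 3–4 weeks.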

[8] = system: ABUTH (Velvetleaf); assay: Postemergence herbicidal evaluation; assay type: in vivo, Abutilon theophrasti; conditions: for herbicidal rating ABUTH / ABUTH herbicidal rating: postemergence
In short: as §1

[9] = system: IPOHE (Morningglory, Ivyleaf); assay: Preemergence herbicidal evaluation; assay type: in vivo, Ipomoea hederacea; conditions: rated 4-5 weeks after treatment; for IPOHE rating: preemergence, 0-9 scale
In short: as §2

[10] = system: CYPIR (Rice Flatsedge); assay: Preemergence weed control under flooded paddy conditions; assay type: in vivo, Cyperus iria; conditions: rated 3-4 weeks after treatment
In short: (§4)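 Silt loam, seeds in top 0.5 cm; flood held 1.5-3 cm; test cpd as acetone/water 50/50 into flood water, ~0.0313-0.500 kg/ha a.i.; greenhouse 3-4 wk; visual 0-9 score vs control.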

[11] = system: ECHORC (Watergrass (Calif.)); assay: as above; assay type: in vivo, Echinochloa oryzoides; conditions: rated 3-4 weeks after treatment
In short: as §4

[12] = system: SETVI (Foxtail, Green); assay: Postemergence herbicidal evaluation; assay type: in vivo, Setaria viridis; conditions: for herbicidal rating SETVI / SETVI herbicidal rating: postemergence
In short: as §1

[13] = system: CYPIR (Rice Flatsedge); assay: Postemergence weed control under flooded paddy conditions; assay type: in vivo, Cyperus iria; conditions: postemergence weeds
In short: as §3

[14] = system: SAGPY (Arrowhead (Pygmaea)); assay: as above; assay type: in vivo, Sagittaria pygmaea; conditions: postemergence weeds
In short: as §3

[15] = Rate 0.0625 kg/ha, rated 3 to 4 weeks after treatment
[16] = rate 0.1250 kg/ha, 3-4 weeks after treatment
[17] = rate 0.2500 kg/ha, 3-4 weeks after treatment
[18] = Rate 0.0313 kg/ha, rated 3 to 4 weeks after treatment
[19] = Rate 0.1250 kg/ha, rated 3 to 4 weeks after treatment
[20] = Rate 0.2500 kg/ha, rated 3 to 4 weeks after treatment
[21] = Rate 0.5000 kg/ha, rated 3 to 4 weeks after treatment

C#CCOC(=O)CC1SC(=Nc2cc(-n3c(=O)cc(C(F)(F)F)n(C)c3=O)c(F)cc2Cl)N(CC(=O)OCC)C1=O (stereo not shown) [Compound 59, 2-{{2-Chloro-5-[3,6-dihydro-3-methyl-2,6-dioxo-4-(trifluoromethyl)-1(2H)-pyrimidinyl]-4-fluorophenyl}imino}-4-oxo-3,5-thiazolidinediacetic acid, 3-ethyl (2-propynyl) ester]
MOOVA herbicidal effect rating ([1]; 0.0625 kg/ha): 0.0 | MOOVA herbicidal effect rating ([1]; 0.1250 kg/ha): 0.0 | MOOVA herbicidal effect rating ([1]; 0.2500 kg/ha): 9.0 | Postemergence herbicidal rating ECHCG ([2]; Rate 0.0158 kg/ha): 9.0 | Postemergence herbicidal rating ECHCG ([2]; Rate 0.0315 kg/ha): 9.0 | Postemergence herbicidal rating ECHCG ([2]; Rate 0.0630 kg/ha): 9.0 | Preemergence herbicidal rating TRZAWR ([3]; rate 0.0156 kg/ha): 0.0 | Preemergence herbicidal rating TRZAWR ([3]; rate 0.0313 kg/ha): 0.0 | Preemergence herbicidal rating TRZAWR ([3]; rate 0.0625 kg/ha): 0.0 | Preemergence herbicidal rating TRZAWR ([3]; rate 0.1250 kg/ha): 2.0 | Preemergence herbicidal rating TRZAWR ([3]; rate 0.2500 kg/ha): 2.0 | Preemergence herbicidal rating ZEAMX ([4]; rate 0.0156 kg/ha): 1.0 | Preemergence herbicidal rating ZEAMX ([4]; rate 0.0313 kg/ha): 0.5 | Preemergence herbicidal rating ZEAMX ([4]; rate 0.0625 kg/ha): 1.5 | Preemergence herbicidal rating ZEAMX ([4]; rate 0.1250 kg/ha): 3.0 | Preemergence herbicidal rating ZEAMX ([4]; rate 0.2500 kg/ha): 3.5 | Preemergence herbicidal rating ZEAMX ([4]; rate 0.5000 kg/ha): 6.0 | Postemergence herbicidal rating GALAP ([5]; Rate 0.0158 kg/ha): 6.0 | Postemergence herbicidal rating GALAP ([5]; Rate 0.0315 kg/ha): 6.0 | Postemergence herbicidal rating GALAP ([5]; Rate 0.0630 kg/ha): 9.0 | Postemergence herbicidal rating ORYSAT ([6]; Rate 0.0158 kg/ha): 4.5 | Postemergence herbicidal rating ORYSAT ([6]; Rate 0.0315 kg/ha): 6.0 | Postemergence herbicidal rating ORYSAT ([6]; Rate 0.0630 kg/ha): 5.5 | Herbicidal rating CYPSE [7, 15]: 0.0 | Herbicidal rating CYPSE [7, 16]: 0.0 | Herbicidal rating CYPSE [7, 17]: 7.0 | Postemergence herbicidal rating ABUTH ([8]; Rate 0.0158 kg/ha): 9.0 | Postemergence herbicidal rating ABUTH ([8]; Rate 0.0315 kg/ha): 9.0 | Postemergence herbicidal rating ABUTH ([8]; Rate 0.0630 kg/ha): 9.0 | Preemergence herbicidal rating IPOHE ([9]; rate 0.0156 kg/ha): 1.0 | Preemergence herbicidal rating IPOHE ([9]; rate 0.0313 kg/ha): 4.0 | Preemergence herbicidal rating IPOHE ([9]; rate 0.0625 kg/ha): 8.5 | Preemergence herbicidal rating IPOHE ([9]; rate 0.1250 kg/ha): 9.0 | Preemergence herbicidal rating IPOHE ([9]; rate 0.2500 kg/ha): 9.0 | Preemergence herbicidal rating IPOHE ([9]; rate 0.5000 kg/ha): 9.0 | CYPIR herbicidal effect rating ([10]; 0.0625 kg/ha): 0.0 | CYPIR herbicidal effect rating ([10]; 0.1250 kg/ha): 0.0 | CYPIR herbicidal effect rating ([10]; 0.2500 kg/ha): 9.0 | ECHORC herbicidal effect rating ([11]; 0.0625 kg/ha): 4.0 | ECHORC herbicidal effect rating ([11]; 0.1250 kg/ha): 5.0 | ECHORC herbicidal effect rating ([11]; 0.2500 kg/ha): 7.0 | Postemergence herbicidal rating SETVI ([12]; Rate 0.0158 kg/ha): 9.0 | Postemergence herbicidal rating SETVI ([12]; Rate 0.0315 kg/ha): 9.0 | Postemergence herbicidal rating SETVI ([12]; Rate 0.0630 kg/ha): 9.0 | Herbicidal rating CYPIR [13, 15]: 0.0 | Herbicidal rating CYPIR [13, 16]: 0.0 | Herbicidal rating CYPIR [13, 17]: 9.0 | Herbicidal rating SAGPY [14, 15]: 0.0 | Herbicidal rating SAGPY [14, 16]: 0.0 | Herbicidal rating SAGPY [14, 17]: 3.0

C=CCN1C(=O)C(CC(N)=O)SC1=Nc1cc(-n2c(=O)cc(C(F)(F)F)n(C)c2=O)c(F)cc1Cl (stereo not shown) [Compound 99, 3-Allyl-2-{{2-chloro-5-[3,6-dihydro-3-methyl-2,6-dioxo-4-(trifluoromethyl)-1(2H)-pyrimidinyl]-4-fluorophenyl}imino}-4-oxo-5-thiazolidineacetamide]
MOOVA herbicidal effect rating ([1]; 0.0313 kg/ha): 9.0 | MOOVA herbicidal effect rating ([1]; 0.0625 kg/ha): 9.0 | MOOVA herbicidal effect rating ([1]; 0.1250 kg/ha): 9.0 | MOOVA herbicidal effect rating ([1]; 0.2500 kg/ha): 9.0 | MOOVA herbicidal effect rating ([1]; 0.5000 kg/ha): 9.0 | herbicidal rating ECHCG ([2]; rate 0.0156 kg/ha): 4.0 | herbicidal rating ECHCG ([2]; rate 0.0313 kg/ha): 4.0 | ECHCG herbicidal rating ([2]; rate 0.0625 kg/ha): 7.0 | ECHCG herbicidal rating ([2]; rate 0.1250 kg/ha): 6.0 | TRZAWR rating ([3]; 0.0156 kg/ha): 0.0 | TRZAWR rating ([3]; 0.0313 kg/ha): 0.0 | TRZAWR rating ([3]; 0.0625 kg/ha): 1.0 | TRZAWR rating ([3]; 0.1250 kg/ha): 1.0 | TRZAWR rating ([3]; 0.2500 kg/ha): 4.0 | TRZAWR rating ([3]; 0.5000 kg/ha): 5.0 | ZEAMX rating ([4]; 0.0156 kg/ha): 0.0 | ZEAMX rating ([4]; 0.0313 kg/ha): 0.0 | ZEAMX rating ([4]; 0.0625 kg/ha): 1.0 | ZEAMX rating ([4]; 0.1250 kg/ha): 2.0 | ZEAMX rating ([4]; 0.2500 kg/ha): 6.0 | ZEAMX rating ([4]; 0.5000 kg/ha): 7.0 | herbicidal rating GALAP ([5]; rate 0.0156 kg/ha): 3.0 | herbicidal rating GALAP ([5]; rate 0.0313 kg/ha): 6.0 | GALAP herbicidal rating ([5]; rate 0.0625 kg/ha): 7.0 | GALAP herbicidal rating ([5]; rate 0.1250 kg/ha): 9.0 | herbicidal rating ORYSAT ([6]; rate 0.0156 kg/ha): 4.0 | herbicidal rating ORYSAT ([6]; rate 0.0313 kg/ha): 4.5 | ORYSAT herbicidal rating ([6]; rate 0.0625 kg/ha): 5.5 | ORYSAT herbicidal rating ([6]; rate 0.1250 kg/ha): 6.5 | Herbicidal rating CYPSE [7, 18]: 0.0 | Herbicidal rating CYPSE [7, 15]: 0.0 | Herbicidal rating CYPSE [7, 19]: 0.0 | Herbicidal rating CYPSE [7, 20]: 0.0 | Herbicidal rating CYPSE [7, 21]: 0.0 | herbicidal rating ABUTH ([8]; rate 0.0156 kg/ha): 9.0 | herbicidal rating ABUTH ([8]; rate 0.0313 kg/ha): 9.0 | ABUTH herbicidal rating ([8]; rate 0.0625 kg/ha): 9.0 | ABUTH herbicidal rating ([8]; rate 0.1250 kg/ha): 9.0 | IPOHE rating ([9]; 0.0156 kg/ha): 0.0 | IPOHE rating ([9]; 0.0313 kg/ha): 0.0 | IPOHE rating ([9]; 0.0625 kg/ha): 9.0 | IPOHE rating ([9]; 0.1250 kg/ha): 9.0 | IPOHE rating ([9]; 0.2500 kg/ha): 9.0 | IPOHE rating ([9]; 0.5000 kg/ha): 9.0 | CYPIR herbicidal effect rating ([10]; 0.0313 kg/ha): 0.0 | CYPIR herbicidal effect rating ([10]; 0.0625 kg/ha): 0.0 | CYPIR herbicidal effect rating ([10]; 0.1250 kg/ha): 0.0 | CYPIR herbicidal effect rating ([10]; 0.2500 kg/ha): 0.0 | CYPIR herbicidal effect rating ([10]; 0.5000 kg/ha): 0.0 | ECHORC herbicidal effect rating ([11]; 0.0313 kg/ha): 0.0 | ECHORC herbicidal effect rating ([11]; 0.0625 kg/ha): 0.0 | ECHORC herbicidal effect rating ([11]; 0.1250 kg/ha): 0.0 | ECHORC herbicidal effect rating ([11]; 0.2500 kg/ha): 0.0 | ECHORC herbicidal effect rating ([11]; 0.5000 kg/ha): 4.0 | herbicidal rating SETVI ([12]; rate 0.0156 kg/ha): 6.0 | herbicidal rating SETVI ([12]; rate 0.0313 kg/ha): 7.0 | SETVI herbicidal rating ([12]; rate 0.0625 kg/ha): 9.0 | SETVI herbicidal rating ([12]; rate 0.1250 kg/ha): 8.0 | Herbicidal rating CYPIR [13, 18]: 0.0 | Herbicidal rating CYPIR [13, 15]: 0.0 | Herbicidal rating CYPIR [13, 19]: 0.0 | Herbicidal rating CYPIR [13, 20]: 0.0 | Herbicidal rating CYPIR [13, 21]: 0.0 | Herbicidal rating SAGPY [14, 18]: 0.0 | Herbicidal rating SAGPY [14, 15]: 0.0 | Herbicidal rating SAGPY [14, 19]: 3.0 | Herbicidal rating SAGPY [14, 20]: 4.0 | Herbicidal rating SAGPY [14, 21]: 4.0
